Test results from patent publication US11529343B2, “Compositions and methods for identifying and treating dystonia disorders” (DUKE UNIVERSITY, priority 2015, dated 2022).
Peptide text beside a SMILES is read from it. * marks the point of attachment. Cbz = O=C(OCc1ccccc1)*

Tests used:
[1] = test system: WT Torsin1a localization; assay: Torsin1a localization assay in WT Torsin1a-expressing assay cell line; type: cell-based, human; settings: for percentage of cells with punctate EGFP-Torsin1a signal, WT cell line: single concentration: MG132 10 μM, PBA 20 mM
Description: To develop an assay capable of detecting conditions that correct a dystonia cellular phenotype, two human cell lines were generated that stably expressed EGFP-tagged human wild-type Torsin 1A, or delta-E Torsin1a, from a single cDNA copy integrated at a defined genomic site (FIG. 1, panel 1).
To limit variation in expression levels associated with random integration or transient expression, single copies of either WT or delta-E human TOR1A cDNAs with N-terminal EGFP fusions were inserted at the FRT site in Flp-In™ T-Rex™ 293 cells (Thermo Fisher Scientific #R780-07) via flippase recombinase-mediated cassette exchange according to the manufacturer's recommended protocols. This system includes an inducible expression feature (TetON) that avoids selective pressure for potential toxic effects of chronic expression of mutant proteins (FIG. 1, panel 1).
Flp-In T-Rex 293 cells inducibly expressing either WT or delta-E Torsin1a were maintained in selective media [DMEM-HG (Thermo Fisher Scientific #11965)+1× GlutaMax (Thermo Fisher Scientific #35050-061)+75 μg/mL hygromycin (Thermo Fisher Scientific #10687-010)+15 μg/mL blasticidin S (Thermo Fisher Scientific #R210-01)+10% tetracycline screened FBS (Hyclone #SH30070.03T)+1% penicillin/streptomycin/amphotericin (Mediatech Inc. #30-004-C)]. The cells were maintained at 37° C./5% CO2. All experiments were performed on cells with fewer than 5 passages. HEK 293T cells (ATCC #CRL-3216) were maintained in HEK-T media [DMEM (Thermo Fisher #11995)+10% FBS (Hyclone #SH30070.03)+1× GlutaMAX+1% penicillin/streptomycin/amphotericin] at 37° C./5% CO2. Human dermal fibroblast lines were maintained in FGM media [MEM (Thermo Fisher #11095-080)+15% FBS (Hyclone #SH30070.03)+1% Non-Essential Amino Acids (Lonza #13-114E)+1% penicillin/streptomycin/amphotericin] at 37° C./5% CO2.
This approach provides control over expression levels, avoiding the wide variation typically seen with random genomic integration or transient expression approaches. […] The mutant phenotype was measured as the percentage of cells with one or more EGFP puncta using automated high-content imaging analysis (see infra).
Development and validation of the high-content image analysis and assay performance under high-throughput screening conditions is presented in FIG. 9. […] Automated exposure times for each plate were determined by setting a target saturation of 25% in channel 1 in wells containing tetracycline-induced delta-E cells. Detected cells were gated according to nuclear area, length-to-width ratio, and perimeter-to-area ratio. […] EGFP fluorescence (Ch2: excitation 488 nm; emission 509 nm) was used for puncta detection. Automated exposure times for each plate were determined by setting a target saturation of 35% in channel 2 in wells containing induced delta-E cells. […]

[2] = test system: delta-E Torsin1a localization; assay: Delta-E Torsin1a mislocalization assay (% cells with EGFP puncta, high-content imaging); type: cell-based, human; settings: single concentration: MG132 10 μM, PBA 20 mM
[3] = test system: striatal mGluR5 LTD; assay: Long-term depression in cortico-striatal synapse, acute brain slices of WT mice; type: cell-based; settings: pre-incubation 5 nM, 1 hr
Experimental: (§1) To directly test these predictions, whole-cell electrophysiology of striatal projection neurons was performed in acute brain slices to induce long-term depression in the presence of eIF2-alpha pathway-modulating drugs. Acute horizontal brain slices from the progeny of heterozygous ΔE Torsin1a knockin x homozygous Drd1a-tdTomato mice (age P15-21) were prepared largely as described in (Trusel et al., 2015, Cell Rep. 13, 1353-65). LTD was induced as in Trusel et al., 2015, with modifications.
(§2) Heterozygous delGAG Torsin1a knockin mice (courtesy of Dr. W. Dauer, University of Michigan) were crossed with homozygous Drd1a-tdTomato mice (Jackson Labs) and the progeny was used at postnatal day 15-21 for experiments. […]
(§3) Single slices were transferred to a recording chamber and superfused continuously with ACSF containing 50 μM picrotoxin at 32° C. and 3-4 mL/min. […] Evoked excitatory postsynaptic potentials (EPSPs) were recorded in the dorsolateral striatum, while stimulating every 30 seconds with a concentric bipolar electrode (FHC) in cortical layer V (see Trusel et al., Cell Reports, 2015). […] Baseline EPSPs were recorded for at least 10 min or until a stable baseline was reached. Data were acquired by pClamp v10 and analyzed using Clampfit v10.4, Origin v8.0, and GraphPad Prism v6.

[4] = test system: striatal mGluR5 LTD; assay: Long-term depression in cortico-striatal synapse, brain slices of heterozygous DYT1 knockin mice; type: cell-based; settings: 20 μM, versus vehicle
Experimental: as §1, §2, §3

SMILES: CC(C)C[C@@H](C=O)NC(=O)[C@H](CC(C)C)NC(=O)[C@H](CC(C)C)NC(=O)OCc1ccccc1 [MG132] (Cbz-Leu-Leu-Leu-aldehyde)
- percentage of cells with punctate EGFP-Torsin1a signal, WT cell line [1]: significantly increased
- percentage of cells with punctate EGFP-Torsin1a signal, delta-E cell line [2]: significantly increased

SMILES: O=C(O)CCCc1ccccc1 [PBA, phenylbutyric acid]
- percentage of cells with punctate EGFP-Torsin1a signal, WT cell line [1]: ameliorated the burden of cells with punctate pathology
- percentage of cells with punctate EGFP-Torsin1a signal, delta-E cell line [2]: ameliorated the burden of cells with punctate pathology

SMILES: O=C(COc1ccc(Cl)cc1)NC1CCC(NC(=O)COc2ccc(Cl)cc2)CC1 (centres unmarked) [ISRIB]
- Torsin1a expression levels, in words ([1]; WT cell line): without effects on Torsin1a expression levels
- effect on WT Torsin1a localization (cells with puncta), in words ([1]; dose response, WT cell line): dose-dependent increase in cells with punctate Torsin1a localization
- effect on LTD in WT brain slices [3]: robustly inhibited LTD

SMILES: O=C(/C=C/c1ccccc1)NC(NC(=S)Nc1ccc(Cl)cc1)C(Cl)(Cl)Cl (centres unmarked) [Sal-003]
- effect on LTD in brain slices heterozygous for the DYT1 knockin mutation (delGAG) [4]: restored long-term depression
